Laboratory results: the NIST ThermoML archive (doi:10.1021/je700260f)

Conditions: 333.15 K, Liquid, Vibrating tube method

FC(C(F)(F)F)C(F)(F)F [1,1,1,2,3,3,3-heptafluoropropane]
Conditions	mass density [kg/m3]
14224 kPa	1356.7
14266 kPa	1357
14291 kPa	1357.2
14328 kPa	1357.4
14371 kPa	1357.7
14400 kPa	1357.8
14435 kPa	1358.2
14458 kPa	1358.3
14483 kPa	1358.5
14514 kPa	1358.6
14545 kPa	1358.8
14575 kPa	1359.1
14609 kPa	1359.3
14631 kPa	1359.4
14665 kPa	1359.7
14691 kPa	1359.8
14717 kPa	1360
14746 kPa	1360.2
14768 kPa	1360.3
14798 kPa	1360.5
15205 kPa	1363.1
15236 kPa	1363.4
15290 kPa	1363.8
15717 kPa	1366.6
15745 kPa	1366.7
15780 kPa	1366.8
15812 kPa	1367.1
15836 kPa	1367.2
15868 kPa	1367.4
15899 kPa	1367.6
15926 kPa	1367.8
16438 kPa	1370.9
16464 kPa	1371.3
16489 kPa	1371.4
16519 kPa	1371.5
16626 kPa	1372.2
16683 kPa	1372.5
16707 kPa	1372.8
16730 kPa	1372.7
16761 kPa	1373
17906 kPa	1379.9
17932 kPa	1379.9
17962 kPa	1380.3
17993 kPa	1380.3
18015 kPa	1380.5
18050 kPa	1380.7
18080 kPa	1380.9
18108 kPa	1381
19508 kPa	1388.9
19537 kPa	1389
19563 kPa	1389.2
19597 kPa	1389.4
19624 kPa	1389.6
19650 kPa	1389.8
19677 kPa	1389.8
20749 kPa	1395.7
20777 kPa	1395.9
20814 kPa	1396
20842 kPa	1396.2
20873 kPa	1396.4
20901 kPa	1396.5
20931 kPa	1396.6
20957 kPa	1396.9
20979 kPa	1396.9
21008 kPa	1397
21033 kPa	1397.1
21063 kPa	1397.3
21088 kPa	1397.5
21120 kPa	1397.5
21148 kPa	1397.8
21172 kPa	1397.9
21205 kPa	1398
21229 kPa	1398.2
21270 kPa	1398.3
21296 kPa	1398.6
21327 kPa	1398.7
21360 kPa	1398.9
21397 kPa	1399.2
21645 kPa	1400.3
21675 kPa	1400.5
21704 kPa	1400.7
21740 kPa	1400.8
21764 kPa	1401
21831 kPa	1401.4
21897 kPa	1401.7
21932 kPa	1401.8
22798 kPa	1406.2
22829 kPa	1406.3
22856 kPa	1406.5
22880 kPa	1406.7
22918 kPa	1406.7
22954 kPa	1407
23854 kPa	1411.4
25147 kPa	1417.6
25181 kPa	1417.7
25224 kPa	1417.9
25251 kPa	1417.9
25279 kPa	1418.1
25312 kPa	1418.3
25354 kPa	1418.4
25387 kPa	1418.6
25415 kPa	1418.7
26099 kPa	1421.9
26128 kPa	1422
26167 kPa	1422.2
26201 kPa	1422.2
26234 kPa	1422.6
26257 kPa	1422.6
26527 kPa	1423.9
26563 kPa	1423.8
26596 kPa	1424.2
26625 kPa	1424.4
26654 kPa	1424.4
26692 kPa	1424.5
26726 kPa	1424.8
26760 kPa	1424.8
26801 kPa	1425
26831 kPa	1425.1
26860 kPa	1425.4
26889 kPa	1425.4
26914 kPa	1425.6
26943 kPa	1425.8
26972 kPa	1425.8
26999 kPa	1425.9
27023 kPa	1426
27056 kPa	1426.1
27081 kPa	1426.2
27119 kPa	1426.4
27151 kPa	1426.6
27180 kPa	1426.6
27621 kPa	1428.6
27651 kPa	1428.9
27681 kPa	1428.9
27707 kPa	1428.9
27750 kPa	1429.2
27783 kPa	1429.3
27818 kPa	1429.5
27852 kPa	1429.7
27890 kPa	1429.9
27916 kPa	1430
27950 kPa	1430.1
27975 kPa	1430.2
28484 kPa	1432.4
28514 kPa	1432.5
28543 kPa	1432.6
28577 kPa	1432.8
28602 kPa	1432.9
28633 kPa	1433
28668 kPa	1433.1
28698 kPa	1433.3
28730 kPa	1433.3
28761 kPa	1433.5
28792 kPa	1433.6
28833 kPa	1433.9
28866 kPa	1434
28892 kPa	1434.1
28917 kPa	1434.2
28956 kPa	1434.4
28982 kPa	1434.4
29008 kPa	1434.6
29042 kPa	1434.7
29069 kPa	1434.8
29104 kPa	1434.9
29132 kPa	1435.2
29171 kPa	1435.3
29206 kPa	1435.5
29233 kPa	1435.5
29267 kPa	1435.7
29293 kPa	1435.7
29326 kPa	1435.9
29364 kPa	1436.1
29400 kPa	1436.2
29434 kPa	1436.4
29694 kPa	1437.4
29758 kPa	1437.7
30086 kPa	1439
30149 kPa	1439.4
30189 kPa	1439.6
30299 kPa	1440
30336 kPa	1440.1
30372 kPa	1440.3
30402 kPa	1440.3
30439 kPa	1440.7
30461 kPa	1440.7
30493 kPa	1440.8
30521 kPa	1440.9
30557 kPa	1441.1
30586 kPa	1441.1
30623 kPa	1441.3
30650 kPa	1441.3
30690 kPa	1441.5
30717 kPa	1441.7
30753 kPa	1441.8
30780 kPa	1441.9
30816 kPa	1442.1
30843 kPa	1442
30884 kPa	1442.3
30925 kPa	1442.4
32911 kPa	1450.4
32943 kPa	1450.4
32981 kPa	1450.6
33028 kPa	1450.9
33066 kPa	1451
33093 kPa	1451.1
33132 kPa	1451.1
